Measurements taken from ChEMBL document CHEMBL4052655, “Synthesis, spectroscopic characterization and biological evaluation of unsymmetrical aminosquarylium cyanine dyes” (Bioorg Med Chem, 2017).
Activity calls are given as the source filed them. The rule behind the calls is not given here.

How the values were obtained:
Caco-2 [1] = test: Phototoxicity against human Caco2 cells assessed as reduction in cell viability at 1 uM pretreated for 24 hrs followed by 1.81 J irradiation for 7 mins measured after 1 to 24 hrs by Alamar blue assay; format: functional, cell-based
[2] = Dark toxicity against human HepG2 cells pretreated for 24 hrs followed by 14 mins dark incubation measured after 24 hrs by Alamar blue assay; format: cell-based
Caco-2 [3] = test: Phototoxicity against human Caco2 cells pretreated for 24 hrs followed by 1.81 J irradiation for 7 mins measured after 24 hrs by Alamar blue assay; format: functional, cell-based; conditions: Caco-2, light or radiation study
[4] = Dark toxicity against human HepG2 cells pretreated for 24 hrs followed by 14 mins dark incubation measured after 1 hr by Alamar blue assay; format: cell-based
HepG2 [5] = test: Phototoxicity against human HepG2 cells pretreated for 24 hrs followed by 1.81 J irradiation for 7 mins measured after 24 hrs by Alamar blue assay; format: functional, cell-based; conditions: HepG2, light or radiation study
Caco-2 [6] = test: Phototoxicity against human Caco2 cells pretreated for 24 hrs followed by 3.61 J irradiation for 14 mins measured after 24 hrs by Alamar blue assay; format: functional, cell-based; conditions: Caco-2, light or radiation study
HepG2 [7] = test: Phototoxicity against human HepG2 cells assessed as reduction in cell viability at 1 uM pretreated for 24 hrs followed by 3.61 J irradiation for 14 mins measured after 1 hr by Alamar blue assay; format: functional, cell-based
HepG2 [8] = test: Phototoxicity against human HepG2 cells pretreated for 24 hrs followed by 3.61 J irradiation for 14 mins measured after 24 hrs by Alamar blue assay; format: functional, cell-based; conditions: HepG2, light or radiation study
HepG2 [9] = test: Phototoxicity against human HepG2 cells pretreated for 24 hrs followed by 1.81 J irradiation for 7 mins measured after 1 hr by Alamar blue assay; format: functional, cell-based; conditions: HepG2, light or radiation study
HepG2 [10] = test: Phototoxicity against human HepG2 cells assessed as reduction in cell viability at 1 uM pretreated for 24 hrs followed by 1.81 J irradiation for 7 mins measured after 24 hrs by Alamar blue assay; format: functional, cell-based
[11] = Dark toxicity against human HepG2 cells assessed as cell viability at 5 to 10 uM pretreated for 24 hrs followed by 14 mins dark incubation measured after 1 to 24 hrs by Alamar blue assay relative to control; format: cell-based; conditions: read-out: Activity
Caco-2 [12] = test: Phototoxicity against human Caco2 cells pretreated for 24 hrs followed by 3.61 J irradiation for 14 mins measured after 1 hr by Alamar blue assay; format: functional, cell-based; conditions: Caco-2, light or radiation study
HepG2 [13] = test: Phototoxicity against human HepG2 cells assessed as reduction in cell viability at 1 uM pretreated for 24 hrs followed by 3.61 J irradiation for 14 mins measured after 24 hrs by Alamar blue assay; format: functional, cell-based
[14] = Dark toxicity against human Caco2 cells pretreated for 24 hrs followed by 14 mins dark incubation measured after 24 hrs by Alamar blue assay; format: cell-based; conditions: Caco-2 cells
Caco-2 [15] = test: Phototoxicity against human Caco2 cells assessed as cell viability at 1 uM pretreated for 24 hrs followed by 3.61 J irradiation for 14 mins measured after 24 hrs by Alamar blue assay (reference value: 80%); format: functional; conditions: Caco-2, light or radiation study, read-out: Activity
HepG2 [16] = test: Phototoxicity against human HepG2 cells pretreated for 24 hrs followed by 3.61 J irradiation for 14 mins measured after 1 hr by Alamar blue assay; format: functional, cell-based; conditions: HepG2, light or radiation study
[17] = Dark toxicity against human HepG2 cells assessed as cell viability at 1 uM pretreated for 24 hrs followed by 14 mins dark incubation after 48 hrs by Alamar blue assay relative to control; format: cell-based; conditions: read-out: Activity
[18] = Induction of singlet oxygen production in chloroform
[19] = Dark toxicity against human Caco2 cells assessed as cell viability at 1 uM pretreated for 24 hrs followed by 14 mins dark incubation after 1 to 24 hrs by Alamar blue assay relative to control; format: cell-based; conditions: Caco-2 cells, read-out: Activity
[20] = Dark toxicity against human Caco2 cells pretreated for 24 hrs followed by 14 mins dark incubation measured after 1 hr by Alamar blue assay; format: cell-based; conditions: Caco-2 cells
HepG2 [21] = test: Phototoxicity against human HepG2 cells assessed as reduction in cell viability at 1 uM pretreated for 24 hrs followed by 1.81 J irradiation for 7 mins measured after 1 hr by Alamar blue assay; format: functional, cell-based
Caco-2 [22] = test: Phototoxicity against human Caco2 cells pretreated for 24 hrs followed by 1.81 J irradiation for 7 mins measured after 1 hr by Alamar blue assay; format: functional, cell-based; conditions: Caco-2, light or radiation study
[23] = Dark toxicity against human Caco2 cells assessed as cell viability at 5 to 10 uM pretreated for 24 hrs followed by 14 mins dark incubation measured after 1 to 24 hrs by Alamar blue assay relative to control; format: cell-based; conditions: Caco-2 cells, read-out: Activity
Caco-2 [24] = test: Phototoxicity against human Caco2 cells assessed as cell viability at 5 uM pretreated for 24 hrs followed by 3.61 J irradiation for 14 mins measured after 24 hrs by Alamar blue assay (reference value: 60%); format: functional; conditions: Caco-2, light or radiation study, read-out: Activity
[25] = Dark toxicity against human Caco2 cells assessed as cell viability at 0.1 to 1 uM pretreated for 24 hrs followed by 14 mins dark incubation after 1 to 24 hrs by Alamar blue assay relative to control; format: cell-based; conditions: Caco-2 cells, read-out: Activity
Caco-2 [26] = test: Phototoxicity against human Caco2 cells assessed as cell viability at 5 uM pretreated for 24 hrs followed by 1.81 J irradiation for 7 mins measured after 24 hrs by Alamar blue assay (reference value: 60%); format: functional; conditions: Caco-2, light or radiation study, read-out: Activity
Caco-2 [27] = test: Phototoxicity against human Caco2 cells assessed as reduction in cell viability at 1 uM pretreated for 24 hrs followed by 3.61 J irradiation for 14 mins measured after 24 hrs by Alamar blue assay; format: functional, cell-based
Caco-2 [28] = test: Ratio of IC50 for human Caco2 cells pretreated for 24 hrs followed by 14 mins dark incubation to IC50 for human Caco2 cells pretreated for 24 hrs followed by 3.61 J irradiation for 14 mins
Caco-2 [29] = test: Dark toxicity against human Caco2 cells assessed as reduction in cell viability at 10 uM pretreated for 24 hrs followed by 14 mins dark incubation measured after 1 to 24 hrs by Alamar blue assay; format: cell-based; conditions: caco-2, 10 µM
Caco-2 [30] = test: Dark toxicity against human Caco2 cells assessed as reduction in cell viability at 1 uM pretreated for 24 hrs followed by 14 mins dark incubation measured after 1 to 24 hrs by Alamar blue assay; format: cell-based; conditions: caco-2, 1 µM
Caco-2 [31] = test: Phototoxicity against human Caco2 cells at 5 to 10 uM pretreated for 24 hrs followed by 3.61 J irradiation for 14 mins measured after 24 hrs by Alamar blue assay; format: functional, cell-based
Caco-2 [32] = test: Phototoxicity against human Caco2 cells at 5 to 10 uM pretreated for 24 hrs followed by 1.81 J irradiation for 7 mins measured after 24 hrs by Alamar blue assay; format: functional, cell-based
HepG2 [33] = test: Phototoxicity against human HepG2 cells assessed as reduction in cell viability at 5 uM pretreated for 24 hrs followed by 3.61 J irradiation for 14 mins measured after 24 hrs by Alamar blue assay; format: functional, cell-based
[34] = Dark toxicity against human HepG2 cells assessed as cell viability at 10 uM pretreated for 24 hrs followed by 14 mins dark incubation measured after 1 to 24 hrs by Alamar blue assay relative to control; format: cell-based; conditions: read-out: Activity
HepG2 [35] = test: Phototoxicity against human HepG2 cells assessed as cell viability at 5 uM pretreated for 24 hrs followed by 3.61 J irradiation for 14 mins measured after 24 hrs by Alamar blue assay relative to control; format: functional; conditions: HepG2, light or radiation study, read-out: Activity
HepG2 [36] = test: Phototoxicity against human HepG2 cells assessed as reduction in cell viability up to 10 uM pretreated for 24 hrs followed by 1.81 J irradiation for 7 mins measured after 1 hr by Alamar blue assay; format: functional, cell-based
HepG2 [37] = test: Dark toxicity against human HepG2 cells assessed as reduction in cell viability at 1 uM pretreated for 24 hrs followed by 14 mins dark incubation measured after 1 to 24 hrs by Alamar blue assay; format: cell-based; conditions: hepg2, 1 µM

Row | Structure (SMILES) | Activity (Caco-2 [1]) | IC50 at 24 h [2] [nM] | IC50 (Caco-2 [3]) [nM] | IC50 at 1 h [4] [nM] | IC50 (HepG2 [5]) [nM] | IC50 (Caco-2 [6]) [nM] | Activity (HepG2 [7]) | IC50 (HepG2 [8]) [nM] | IC50 (HepG2 [9]) [nM] | Activity (HepG2 [10]) | viability at 24 h, 10 µM [11] [%] | IC50 (Caco-2 [12]) [nM] | Activity (HepG2 [13]) | IC50 at 24 h [14] [nM] | IC50 (HepG2 [16]) [nM] | viability at 48 h, 1 µM [17] [%] | Activity [18] | IC50 at 1 h [20] [nM] | IC50 (Caco-2 [22]) [nM] | viability at up to 10 µM [23] [%] | other results
1 | CCCCCCN1/C(=C/C2=C(N)C(=C\c3ccc4ccccc4[n+]3CCCCCC)/C2=O)Sc2ccccc21 | Active | 1400 | 1390 | 1710 | 940 | 690 | Active | 650 | 750 | Active | 0 | 950 | Active | 1650 | 860 | 20 | Active | 1720 | 1240 | 0 | viability at 1 µM (Caco-2 [15]): 0%; viability at 24 h, 1 µM [19]: 20%; Activity (HepG2 [21]): Active
2 | CCCCCCN1/C(=C/C2=C(NC)C(=C\c3ccc4ccccc4[n+]3CCCCCC)/C2=O)Sc2ccccc21.[I-] | Active | 1360 | 1160 | 2930 | 1020 | 470 | Active | 830 | 3390 | Active | 0 | 1460 | Active | 1270 | 930 | 70 | Active | 5110 | 3900 | 0 | viability at 5 µM (Caco-2 [24]): 0%; viability at up to 1 µM [25]: 70%; viability at 5 µM (Caco-2 [26]): 0%; Activity (Caco-2 [27]): Active; Ratio IC50 (Caco-2 [28]): 3.6
3 | CCCCCCN1/C(=C/C2=C([O-])C(=C\c3ccc4ccccc4[n+]3CCCCCC)/C2=O)Sc2ccccc21 |  | 7840 | 5380 | 9100 | 8240 | 5080 |  | 5060 | 8530 |  |  | > 10000 |  | 5800 | 8950 |  | Active | > 10000 | > 10000 |  | Activity (Caco-2 [29]): Non-Toxic; Activity (Caco-2 [30]): Non-Toxic; Activity (Caco-2 [31]): Active; Activity (Caco-2 [32]): Active; Activity (HepG2 [33]): Active; viability at 24 h, 10 µM [34]: 15%; viability at 5 µM (HepG2 [35]): 50%; Activity (HepG2 [36]): inactive; Activity (HepG2 [37]): Non-Toxic
